Source: patent US6482799B1, “Self-preserving multipurpose ophthalmic solutions incorporating a polypeptide antimicrobial” (The Regents of the University of California, priority 1999, dated 2002)

Key:
[1] = tested on: S. aureus ATCC 6538; experiment: Protocol 3 time-dependent antimicrobial activity at one dose level; format: cell-based, Staphylococcus aureus; details: 50 μg/ml, 10 mM sodium phosphate buffer pH 7.4, 1, 2, 5 and 15 minutes, room temperature
Procedure: The objective of this protocol is to establish a procedure for determining the antimicrobial activity of indolicidin (e.g., L-IND) at 50 μg/ml over an extended exposure time up to 24 hours at room temperature. It is believed that this procedure more closely mimics the recommended use of lens-care products.
Exposure of the test organism to indolicidin occurs in a buffered solution for up to 24 hours with sampling for viability at different time intervals. Polypropylene 96-well microtiter plates and microcentrifuge tubes are used for exposure and dilution of indolicidin, respectively.
The following materials are used: sterile glass tubes containing 5 ml of Mueller-Hinton Broth (MHB), Mueller-Hinton agar plates, sterile 96-well polypropylene microtiter plates, and sterile polypropylene microcentrifuge tubes.
One or more of the following microorganisms are used in assays using this protocol or modification of this protocol: Pseudomonas aeruginosa (ATCC 9027), Pseudomonas aeruginosa (ATCC 27853), and S. aureus (ATCC 6538).
Five 5 ml of MHB tubes are innoculated with the tester strain(s) from MHA plates and grown overnight at 37° C. on a shaker (180 rpm). […]
Survival is determined by counting the colonies appearing on plates after overnight incubation at 37° C. The results are expressed as CFU/ml and survival is expressed as the percent of the bacteria that survived the treatment. […]

[2] = tested on: S. aureus ATCC 6538; experiment: Long-term (8 month) stability in commercial container (Rite-Aid) by S. aureus bioassay; format: cell-based, Staphylococcus aureus; details: 50 μg/ml; for log kill: 4 hours exposure; for stability: 8 months
Procedure: Long term stability of indolicidin was evaluated in a commercial container (Rite-Aid). The L-indolicidin concentration was 50 μg/ml formulated in a 10 mM sodium phosphate buffer, pH 7.4, with and without 0.85% sodium chloride. The test organism was S. aureus ATCC 6538. Sampling time was 0, 1, 2, 3, 4 and 8 months. The exposure time of the test organism was 0 and 4 hours.

CC[C@H](C)[C@H](N)C(=O)N[C@@H](CC(C)C)C(=O)N1CCC[C@H]1C(=O)N[C@@H](Cc1c[nH]c2ccccc12)C(=O)N[C@@H](CCCCN)C(=O)N[C@@H](Cc1c[nH]c2ccccc12)C(=O)N1CCC[C@H]1C(=O)N[C@@H](Cc1c[nH]c2ccccc12)C(=O)N[C@@H](Cc1c[nH]c2ccccc12)C(=O)N1CCC[C@H]1C(=O)N[C@@H](Cc1c[nH]c2ccccc12)C(=O)N[C@@H](CCCNC(=N)N)C(=O)N[C@@H](CCCNC(=N)N)C(N)=O [L-indolicidin, H2N-ILPWKWPWWPWRR-CONH2] was tested, and the survival [1] was “no survival”, the log kill ([2]; 10 mM SP pH 7.4, over 8 months) was about 4 log and the log kill ([2]; 10 mM SP with 0.85% NaCl, over 8 months) was about 1 log. The stability ([2]; 10 mM SP with NaCl) was 100% and the stability ([2]; 10 mM SP) was 100%.
